In patent publication US5075287A, “Muramyl peptide derivatives and immunoregulating compositions containing them” (priority 1989, dated 1991):
Read-outs that look alike come from different tables or passages of the source.

Tests used:
[1] = tested on: influenza HA vaccine (B/Nagasaki/1/87 strain); assay type: in vivo, female CDF1 mice; details: Experiment 1, 5000-fold dilution
[2] = tested on: hepatitis B virus surface antigen (HBs); experiment: Hepatitis-vaccine enhancing activity (adjuvant activity): anti-HBs IgG in mouse serum by ELISA; assay type: in vivo, female CDF1 mice; details: Experiment 1, 5000-fold dilution
Outline: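 Female CDF1 mice (n=7) given 0.2 ml i.p. of compound in lipid microspheres (1 mg/ml) mixed 1:1 with HBs antigen (50 μg/ml), boosted identically at 3 weeks. Sera from weekly fundus bleeds before and after boost. Anti-HBs IgG measured by ELISA.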

[3] = tested on: L-1210 mouse leukemia cells; experiment: Activation of macrophages (growth inhibition of tumor cells by intraperitoneal macrophages of treated mice, MTT assay); assay type: cell-based; details: macrophages taken 3 days after i.p. 0.2 ml of 500 μg/ml, macrophage:L-1210 20:1, 72 hours
Procedure: A compound of the present invention was dissolved in lipidmicrosphere to obtain a solution in a concentration of 500μg/ml, and 0.2 ml of such solution was intraperitoneally administered to each mouse in one group consisting of seven female CDF1 mice. Intraperitoneal macrophages obtained three days after the administration and L-1210 mouse leukemia cells were mixed in the ratio of cell numbers of 20:1, respectively. Two hundred μl of the mixture was placed in each well of one sheet of 96 well microtiter plate. After 72 hours, the increase of the cell number in each well was determined by a MTT assay method. The ratio of the cell number for the mixture of the L-1210 cells and the macrophage relative to the cell number for the L-1210 cells only(growth inhibitory ratio) was determined, and the results are shown in Table 3.

[4] = 1 W after i.p. administration, compound in lipidmicrosphere + HA vaccine
[5] = 4 W (after secondary stimulation at 3 weeks)
[6] = 5 W (after secondary stimulation at 3 weeks)
[7] = 1 W after i.p. administration, compound in lipidmicrosphere + HBs

Compound	Anti HA serum antigen value (average value ± S.D.) [1, 4]	Anti HA serum antigen value (average value ± S.D.) ([1]; 2 W)	Anti HA serum antigen value (average value ± S.D.) ([1]; 3 W)	Anti HA serum antigen value (average value ± S.D.) [1, 5]	Anti HA serum antigen value (average value ± S.D.) [1, 6]	Anti-HBs IgG antibody level in serum (ELISA absorbance at 415 nm) [2, 7]	Anti-HBs IgG antibody level in serum (ELISA absorbance at 415 nm) ([2]; 2 W)	Anti-HBs IgG antibody level in serum (ELISA absorbance at 415 nm) ([2]; 3 W)	Anti-HBs IgG antibody level in serum (ELISA absorbance at 415 nm) [2, 5]	Anti-HBs IgG antibody level in serum (ELISA absorbance at 415 nm) [2, 6]	Growth inhibitory ratio of L-1210 mouse leukemia cells [3]
CCCCCCCCCCCCCCCCCC(=O)OC[C@H]1O[C@H](OC(=O)C(CCCCCCCCCCCCCC)CCCCCCCCCCCCCC)[C@H](NC(C)=O)[C@@H](O[C@H](C)C(=O)N[C@@H](C)C(=O)N[C@H](CCC(=O)OC)C(N)=O)[C@@H]1O [Example 7, N-[2-0-{2-Acetamido-2,3-dideoxy-6-0-octadecanoyl-1-0-(2-tetradecylhexadecanoyl)-α-D-glucopyranos-3-yl}-D-lactoyl]-L-alanyl-D-isoglutamine methylester]	0.001 ± 0.001 O.D 415 nm	0.112 ± 0.003 O.D 415 nm	0.286 ± 0.001 O.D 415 nm	1.039 ± 0.010 O.D 415 nm	1.128 ± 0.026 O.D 415 nm	0 O.D 415 nm	0.016 ± 0.003 O.D 415 nm	0.071 ± 0.004 O.D 415 nm	0.426 ± 0.000 O.D 415 nm	0.470 ± 0.010 O.D 415 nm	90.2%
CCCCCCCCCCCCCC(=O)O[C@H](CCCCCCCCCCC)CC(=O)S[C@@H]1O[C@H](COC(=O)CCCCCCCCC)[C@@H](O)[C@H](O[C@H](C)C(=O)N[C@@H](C)C(=O)N[C@H](CCC(=O)OC)C(N)=O)[C@H]1NC(C)=O [Example 14, N-[2-0-{2-Acetamido-2,3-dideoxy-6-0-decanoyl-1-S-((3R)-R-tetradecanoyloxytetradecanoyl)-1-thio-β-D-glucopyranos-3yl}-D-lactoyl]-L-alanyl-D-isoglutamine methylester]	0 O.D 415 nm	0.110 ± 0.003 O.D 415 nm	0.186 ± 0.007 O.D 415 nm	0.974 ± 0.006 O.D 415 nm	0.954 ± 0.002 O.D 415 nm	0 O.D 415 nm	0.071 ± 0.000 O.D 415 nm	0.104 ± 0.003 O.D 415 nm	0.784 ± 0.022 O.D 415 nm	0.846 ± 0.024 O.D 415 nm	96.4%
CCCCCCCCCCCCCCC(CCCCCCCCCCCCCC)C(=O)S[C@@H]1O[C@H](COC(=O)CCCCCCCCC)[C@@H](O)[C@H](O[C@H](C)C(=O)N[C@@H](C)C(=O)N[C@H](CCC(=O)OC)C(N)=O)[C@H]1NC(C)=O [Example 8, N-[2-0-{2-Acetamido-2,3-dideoxy-6-0-decanoyl-1-S-(2-tetradecylhexadecanoyl)-1-thio-β-D-glucopyranos-3--yl}-D-lactoyl]-L-alanyl-D-isoglutamine methylester]	0.001 ± 0.001 O.D 415 nm	0.105 ± 0.005 O.D 415 nm	0.246 ± 0.004 O.D 415 nm	1.246 ± 0.019 O.D 415 nm	1.267 ± 0.023 O.D 415 nm	0 O.D 415 nm	0.067 ± 0.003 O.D 415 nm	0.114 ± 0.002 O.D 415 nm	0.897 ± 0.012 O.D 415 nm	0.845 ± 0.016 O.D 415 nm	57.9%
CCCCCCCCCCCCCC(=O)O[C@H](CCCCCCCCCCC)CC(=O)O[C@H]1O[C@H](COC(=O)CCCCCCCCC)[C@@H](O)[C@H](O[C@H](C)C(=O)N[C@@H](C)C(=O)N[C@H](CCC(=O)OC)C(N)=O)[C@H]1NC(C)=O [Example 11, N-[2-0-{2-Acetamido-2,3-dideoxy-6-0-decanoyl-1-0((3R)-3-tetradecanoyloxytetradecanoyl)-α-D-glucopyranos-3-yl}-D-lactoyl]-L-alanyl-D-isoglutaminemethylester]	0 O.D 415 nm	0.073 ± 0.000 O.D 415 nm	0.160 ± 0.005 O.D 415 nm	1.059 ± 0.016 O.D 415 nm	1.050 ± 0.003 O.D 415 nm	0.010 ± 0.002 O.D 415 nm	0.083 ± 0.002 O.D 415 nm	0.124 ± 0.003 O.D 415 nm	0.602 ± 0.009 O.D 415 nm	0.716 ± 0.020 O.D 415 nm	59.7%
CCCCCCCCCCCCCC(=O)OC[C@H]1O[C@H](OC(=O)C[C@@H](CCCCCCCCCCC)OC(=O)CCCCCCCCCCCCC)[C@H](NC(C)=O)[C@@H](O[C@H](C)C(=O)N[C@@H](C)C(=O)N[C@H](CCC(=O)OC)C(N)=O)[C@@H]1O [Example 12, N-[2-0-{2-Acetamido-2,3-dideoxy-6-0-tetradecanoyl-1-0-((3R)-3-tetradecanoyloxytetradecanoyl)-α-D-glucopyranos-3yl}-D-lactoyl]-L-alanyl-D-isoglutamine methylester]	0 O.D 415 nm	0.105 ± 0.004 O.D 415 nm	0.176 ± 0.002 O.D 415 nm	1.039 ± 0.015 O.D 415 nm	1.050 ± 0.008 O.D 415 nm	0.007 ± 0.003 O.D 415 nm	0.109 ± 0.002 O.D 415 nm	0.111 ± 0.001 O.D 415 nm	0.608 ± 0.021 O.D 415 nm	0.695 ± 0.021 O.D 415 nm	79.0%
CCCCCCCCCCCCCCCCCC(=O)OC[C@H]1O[C@@H](SC(=O)C[C@@H](CCCCCCCCCCC)OC(=O)CCCCCCCCCCCCC)[C@H](NC(C)=O)[C@@H](O[C@H](C)C(=O)N[C@@H](C)C(=O)N[C@H](CCC(=O)OC)C(N)=O)[C@@H]1O [Example 16, N-[2-0-{2-Acetamido-2,3-dideoxy-6-0-octadecanoyl-1-S-((3R)-3-tetradecanoyloxytetradecanoyl)-1-thio-β-D-glucopyranos-3-yl}-D-lactoyl]-L-alanyl-D-isoglutamine methylester]	0.001 ± 0.001 O.D 415 nm	0.145 ± 0.004 O.D 415 nm	0.257 ± 0.010 O.D 415 nm	1.251 ± 0.010 O.D 415 nm	1.262 ± 0.026 O.D 415 nm	0 O.D 415 nm	0.079 ± 0.004 O.D 415 nm	0.103 ± 0.004 O.D 415 nm	0.850 ± 0.008 O.D 415 nm	0.903 ± 0.021 O.D 415 nm	76.3%
